Entries after “also recorded” stand apart in the source; their conditions may differ.
How the values were obtained:
gene FUS = assay: Bead barcoded multiplexed RBP/RPS2 binding, genome track view (IGV) with normalized read counts; type: cell-based, human; details: cells treated with 200 nM Risdiplam for 2 hours vs DMSO control; FIG. 7
Experimental: FIG. 7 depicts an IGV screenshot of the gene FUS with normalized read counts for 7 different RBPs and the translation component protein RPS2. Two conditions are shown; one DMSO control and the other cells treated with 200 nM Risdiplam. […] This example illustrates a protocol for a bead barcoded experiment for detecting RNA modifications from cells with RBPs according to an embodiment of the disclosure. The buffers described below are the same as mentioned above with respect to Example 2 unless explicitly stated otherwise. First, Trypan blue stain (Thermo Fisher Scientific, cat. #15250061) or equivalent live cell counting assay was used to valuate cell viability. Next, cell viability was reviewed to be sure it was >95% to ensure intact RNA. Cells were grown to a proper confluence, in most cases grow cells to 75% confluence. Some cells were treated with 200 nM Risdiplam for 2 hours prior to harvesting. First, resuspend anti-rabbit Dynabeads by vortexing or pipetting up and down several times. Second, transfer 500 μL of beads (enough for 20 samples) into a 1.5 mL Eppendorf tube and place tube on DynaMag-2. Third, Remove the supernatant and wash beads thrice with 500 μL PBS, resuspending beads with each wash. Fourth, remove beads from magnet, resuspend beads in 500 μL PBS, add 1.65 μL DBCO-NHS (10 mM in DMSO), and rotate tube at room temperature for 1 hour. […]

[1] = test system: non-TOP motif containing gene, PARP1; assay: Ribo-ABC (oligo conjugated antibody) ribosome-bound RNA read counts, genome track view; type: cell-based; details: ribosomal proteins RPS2, RPS3, RPS14, FIG. 2 bottom panel
Experimental: (§1) Three different ribosomal proteins were used RPS2, RPS3, RPS14.
(§2) This example provides a protocol for a Ribo-ABC experiment according to an embodiment of the disclosure.
(§3) First, the tissue culture plate was placed on leveled ice or on a cooling block pre-chilled to 4° C. Second, the above (plate plus ice or cooling block) was placed into the UV cross-linker. Third, the tissue culture plate lid was removed for cross-linking. Fourth, cross-link at 254-nm UV with an energy setting of 400 mJoules/cm^2. Fifth, while keeping the cells on ice, a cell scraper (Corning, cat. #CLS3010-10EA) was used to scrape the plate. Sixth, the cells were transferred to a 15 mL conical tube. Seventh, the plate was washed once with 5 mL of chilled PBS and added to the same 15 mL tube. Eight, gently resuspended until the sample was homogeneous. Ninth, the 15 mL conical tube was centrifuged at 200×g for 3 minutes at 4° C. Tenth, the sample was aspirated and discarded supernatant. Eleventh, the desired amount of cells for flash freezing was resuspended in chilled PBS (typically 10×10^6 cells per mL). Twelfth, the sample was transferred into 1.5 mL LoBind tubes Tubes (typically 1 mL of 10×10^6 cells per mL). Thirteenth, the sample was spun down at 200×g for 3 minutes at 4° C. Fourteenth, the supernatant was aspirated, and the cell pellets were frozen quickly by submerging the 1.5 mL LoBind tubes in liquid nitrogen. […]

[2] = test system: TOP motif containing gene, GAPDH; assay: as above; type: cell-based; details: ribosomal proteins RPS2, RPS3, RPS14, FIG. 2 top panel
Experimental: as §1, §2, §3

**Q.** For Cc1cn2nc(-c3cc(=O)n4cc(N5CCNC6(CC6)C5)ccc4n3)cc(C)c2n1 [Risdiplam], which “change in binding on gene FUS (7 RBPs and RPS2) versus DMSO control” value (gene FUS) is on record?
**A.** a change in binding across the two conditions; also recorded: a difference observed between the two conditions

**Q.** How did the “change in read counts of PARP1 upon Torin treatment” value [1] turn out when Torin was run?
**A.** no change in read counts

**Q.** What about the “change in read counts of GAPDH upon Torin treatment” value [2] of the same molecule?
**A.** reduced read counts

— patent US20230250417A1, “METHODS FOR DETECTING RNA TRANSLATION” (Eclipse Bioinnovations, Inc., priority 2021, published 2023)
